The experiment relates to A549 cells. Description: Apoptosis assay, Annexin V-FITC/PI flow cytometry. It counts as cell-based, human. The conditions noted are these: A549, 0.8 μM. The procedure: The percentages of apoptotic cells were estimated by staining with Annexin-V-FITC and with a PI Apoptosis Detection Kit (KGA105, Keygen biotech, China) according to the manufacturer’s instructions with some modifications. In brief, collected cells were washed once with PBS and subsequently washed once with binding buffer, and then stained with Annexin V-FITC and propidium iodide (PI) in the binding buffer for 20 min at room temperature in the dark. Apoptotic cells were quantified using a […] plotting at least 10,000 events per sample. To quantify the data, the frequencies in all quadrants were analyzed using flowjo 7.6.1 software. Both early apoptotic (Annexin V-positive, PI-negative) and late apoptotic (double positive of Annexin V and PI) cells were detected.
Background: In flow cytometry, cells or beads pass a laser one at a time.

`COc1cc(/C=N/NC(=O)c2cn(Cc3ccccc3)c3ccccc23)cc(OC)c1OC` [Compound 7]: for the setting “12 h”, the “early apoptosis (Q3)” value was 1.84%. In addition, the “total percentage of early and late apoptotic cells” value by setting is: (24 h) 33.05%; (48 h) 77.2%.
